According to US5364854A, “Derivatives of substituted imidazo benzoxazin-1-one and process for their preparation” (Farmitalia Carlo Erba S.r.l., priority 1992, dated 1994):
Structures can show the parent of a compound that is named as a salt.

What was measured:
[1] = biological target: T1, 5HT3 receptor (Rattus norvegicus, UniProt P35563); experiment: 5-HT3 binding affinity in rat entorhinal cortex using ^3 H-BRL 43694 (Granisetron); parameters: labelled in the entorhinal cortex of the rat brain; from tissue; host or cells: rat entorhinal cortex
T1 sequence (P35563 24-483): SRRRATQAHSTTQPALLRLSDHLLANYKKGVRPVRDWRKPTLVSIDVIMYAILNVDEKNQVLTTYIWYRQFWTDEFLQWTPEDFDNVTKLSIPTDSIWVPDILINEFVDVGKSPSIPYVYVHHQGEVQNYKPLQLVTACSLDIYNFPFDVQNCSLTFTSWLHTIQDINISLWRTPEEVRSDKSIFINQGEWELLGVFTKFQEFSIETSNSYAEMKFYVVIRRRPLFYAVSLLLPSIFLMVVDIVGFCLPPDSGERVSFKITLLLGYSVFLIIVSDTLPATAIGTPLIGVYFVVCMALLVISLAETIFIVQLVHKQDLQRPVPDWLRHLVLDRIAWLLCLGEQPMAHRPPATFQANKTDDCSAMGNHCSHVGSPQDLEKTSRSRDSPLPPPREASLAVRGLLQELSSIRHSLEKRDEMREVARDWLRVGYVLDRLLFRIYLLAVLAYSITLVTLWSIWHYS
Method: The affinity for serotonin 5-HT3 receptor was also assessed for instance in rat entorhinal cortex using the selective radioligand ^3 H-[…] as described by Nelson and Thomas (1989).
Nelson D. R. and Thomas D. R., [^3 H]-BRL 43694 (Granisetron), a specific ligand for 5-HT3 binding sites in rat brain cortical membranes Biochem. Pharmac. 38, 1693-1695, 1989.
The following Table III summarizes the data obtained in this in vitro test for a representative group of compounds of the invention in comparison with the known reference compounds MDL 72222 and Metoclopramide.
5-HT3 binding affinity ^b) for rat entorhinal cortex.
^(b) ^3 […] labelled 5HT3 sites

[2] = biological target: T1, 5HT3 receptor; experiment: Inhibition of the von Bezold-Jarisch chemoreflex evoked by 5-HT (20 μg/kg i.v.) in the anesthetised rat (in vivo 5HT3 antagonist activity); parameters: chemoreflex evoked by 5-HT in the anesthetised rat; from tissue; host or cells: anaesthetised rat in vivo (own knowledge: 5-HT3 receptors on cardiac vagal afferents); details: anesthetized rat; for % Inhibition: mean ± S.E.M.; for ED50: iv, limits in parentheses on the following line
Method: Pharmacol. 326, 36-44 (1984).
The following Table I reports the in vivo 5HT3 antagonist activity data obtained in this test for the representative compounds of the invention 2,3,3a,4-tetrahydro-2-(1-azabicyclo [2.2.2]oct-3-yl)-8-chloro-1H-imidazo[5,1-c][1,4]benzoxazin-1-one hydrochloride (internal code FCE 26781);
Inhibition of the Bezold-Jarisch reflex elicited by 5-HT (20
μg/kg i.v.) by i.v. FCE compounds in the anesthetized rat.
Values are mean ± S.E.M. from N animals

[3] = biological target: T1, 5HT3 receptor; experiment: Inhibition of the binding of ^3 H-GR65630 to 5-HT3 sites in rat entorhinal cortex; parameters: labelled in the entorhinal cortex of the rat brain; from tissue; host or cells: rat entorhinal cortex
Text: (§1) The following Table II reports the data obtained in this in vitro test for a representative group of compounds of the invention in comparison with the known reference compounds MDL 72222 and Metoclopramide.
(§2) 5-HT3 binding affinity ^(a) for rat entorhinal cortex
(§3) ^(a) [^3 HGR 65630 labelled 5HT3 sites.
(§4) The tested compounds were able to interact with 5-HT3 -serotonin receptors labelled in the entorhinal cortex of the rat brain with ^3 H-GR 65630.

[4] = biological target: 5-HT3 receptor; experiment: as above; details: ^3 H-GR 65630, rat entorhinal cortex, low (affinity site), two-site fit
Text: as §1, §2, §3, §4

[5] = ^3 H-GR 65630, rat entorhinal cortex, high (affinity site), only Ki where one-site fit, read-out: Ki high
[6] = ^3 H-BRL 43694 labelled 5HT3 sites, rat entorhinal cortex, read-out: Ki

| Compound | Ki [1] [nM] | % Inhibition ([2]; 100 μg/kg i.v., N=3-7) [%] | Ki [3, 5] [nM] | Ki [1, 6] [nM] | Ki [4] [nM] | % Inhibition ([2]; 50 μg/kg i.v., N=6) [%] | % Inhibition ([2]; 150 μg/kg i.v., N=6) [%] | % Inhibition ([2]; 450 μg/kg i.v., N=6) [%] | ED50 [2] [mg/kg] | Ki [3] [nM] |
| --- | --- | --- | --- | --- | --- | --- | --- | --- | --- | --- |
| CN1C2CCC1CC(OC(=O)c1cc(Cl)cc(Cl)c1)C2 (stereo not shown) [MDL 72222, reference compound] | 23 | – | – | – | – | – | – | – | – | – |
| CN1C2CCCC1CC(N1CC3COc4ccccc4N3C1=O)C2 (stereo not drawn) [FCE 26963, (endo)-2,3,3a,4-tetrahydro-2-(9-methyl-9-azabicyclo[3.3.1]non-3-yl)-1H-imidazo[5,1-c][1,4]benzoxazin-1-one hydrochloride] | – | 27.1 ± 10.7 | 151 | 170 | 72000 | – | – | – | – | – |
| Cl.O=C1N(C2CN3CCC2CC3)CC2COc3ccc(Cl)cc3N12 (stereo not shown) [FCE 26781, 2,3,3a,4-tetrahydro-2-(1-azabicyclo [2.2.2]oct-3-yl)-8-chloro-1H-imidazo[5,1-c][1,4]benzoxazin-1-one hydrochloride] | 13 | – | – | – | 1900 | 29.50 ± 6.34 | 50.38 ± 5.45 | 90.38 ± 2.80 | 0.112 | 2.61 |
| CN1C2CCCC1CC(N1CC3COc4ccc(Cl)cc4N3C1=O)C2 (stereo not drawn) [FCE 26785, (endo)-2,3,3a,4-tetrahydro-8-chloro-2-(9-methyl-9-azabicyclo[3.3.1]non-3-yl)-1H-imidazo[5,1-c][1,4]benzoxazin-1-one hydrochloride] | – | – | – | 310 | 600 | – | – | – | – | 9.79 |
| CCN(CC)CCNC(=O)c1cc(Cl)c(N)cc1OC [Metoclopramide, reference compound] | 490 | – | – | – | – | – | – | – | – | – |
| Cl.O=C1N(C2CN3CCC2CC3)CC2COc3ccccc3N12 (stereo not shown) [FCE 26962, 2,3,3a,4-tetrahydro-2-(1-azabicyclo[2.2.2]oct-3-yl)-1H-imidazo [5,1-c][1,4]benzoxazin-1-one hydrochloride] | 0.4 | 86.4 ± 1.8 | – | – | 14000 | – | – | – | 0.0263 | 9.74 |
| CN1C2CCC1CC(N1CC3COc4ccc(Cl)cc4N3C1=O)C2 (stereo not drawn) [FCE 26783, (endo)-2,3,3a,4-tetrahydro-8-chloro-2-(8-methyl-8-azabicyclo [3.2.1]oct-3-yl)-1H-imidazo[5,1-c][1,4]benzoxazin-1-one hydrochloride] | 30 | 30.9 ± 6.0 | 400 | – | – | – | – | – | – | – |
| CN1C2CCC1CC(N1CC3COc4ccccc4N3C1=O)C2 (stereo not drawn) [FCE 26878, (endo)-2,3,3a,4-tetrahydro-2-(8-methyl-8-azabicyclo[3.2.1]oct-3-yl)-1H-imidazo[5,1-c][1,4]benzoxazin-1-one, hydrochloride] | 9 | 85.8 ± 1.7 | – | – | – | – | – | – | 0.0138 | 70 |
